Drawing on patent publication US12344623B2, “Thiazolopyridine derivatives as adenosine receptor antagonists” (Merck Patent GmbH, priority 2019, dated 2025), this text covers IC50 for 19 compounds.

Where two headings read alike, the source gives them in different places. Where only a bound is given, the exact number is not on record here.

Common to all, as to assay type: cell-based
One assay has as its target T1, human A3 receptor (Homo sapiens, UniProt P0DMS8).
T1 construct: expressed in transfected cells; host or cells: CHO
T1 sequence (P0DMS8 1-318): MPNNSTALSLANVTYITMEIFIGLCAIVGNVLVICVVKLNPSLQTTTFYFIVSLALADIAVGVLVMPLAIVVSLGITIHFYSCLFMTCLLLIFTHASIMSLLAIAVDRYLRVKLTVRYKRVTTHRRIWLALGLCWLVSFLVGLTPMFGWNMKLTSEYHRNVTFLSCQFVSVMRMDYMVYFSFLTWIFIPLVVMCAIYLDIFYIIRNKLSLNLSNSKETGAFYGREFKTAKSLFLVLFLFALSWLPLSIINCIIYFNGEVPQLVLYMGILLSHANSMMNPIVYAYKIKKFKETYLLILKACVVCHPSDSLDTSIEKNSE
Briefly: Functional A3 receptor activity, recombinant CHO cells, cAMP (HTRF), forskolin, agonist IB-MECA. As to conditions: recombinant CHO cells, forskolin, agonist IB-MECA, read-out: Functional A3 receptor activity, CHO, cAMP, IC50. A digest of the protocol: (§1)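 Gi-coupled readout: CHO cells expressing human A1 or A3 receptor were treated with forskolin, test compound and agonist (CPA for A1, IB-MECA for A3) for 30 min; cellular cAMP was then measured by HTRF. Data were normalized to inhibitor and DMSO controls and curve-fitted.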
(In general: In TR-FRET formats the signal depends on donor and acceptor labels being close together.)

The target in the next assay is human A2A receptor (Homo sapiens, UniProt P29274). As to the kind of experiment: Functional A2A receptor activity, recombinant HEK293 cells, cAMP (HTRF), agonist NECA. As to conditions: read-out: Functional A2A receptor activity, HEK293, cAMP, IC50. Details: expressed in transfected cells; host or cells: HEK293. Put shortly:
(§2)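 Forskolin, test compounds and agonist were added together to the cells and incubated for 30 min. Cellular cAMP was then quantified by HTRF. Raw signals were normalized to an inhibitor control and a neutral DMSO control, and the normalized data were curve-fitted.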

In the next assay the target is T2, human A1 receptor (Homo sapiens, UniProt P30542).
T2 construct: expressed in transfected cells; host or cells: CHO
T2 sequence (P30542 1-326): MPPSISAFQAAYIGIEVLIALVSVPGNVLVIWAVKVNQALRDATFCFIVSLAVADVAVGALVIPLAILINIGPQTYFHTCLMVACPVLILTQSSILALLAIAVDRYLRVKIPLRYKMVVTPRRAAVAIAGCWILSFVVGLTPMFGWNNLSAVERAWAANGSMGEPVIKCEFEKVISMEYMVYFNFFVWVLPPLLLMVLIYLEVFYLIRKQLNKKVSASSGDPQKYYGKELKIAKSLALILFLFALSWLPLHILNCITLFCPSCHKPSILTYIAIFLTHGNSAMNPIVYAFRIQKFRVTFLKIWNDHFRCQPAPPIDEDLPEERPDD
Briefly: Functional A1 receptor activity, recombinant CHO cells, cAMP (HTRF), forskolin, agonist CPA. As to conditions: recombinant CHO cells, forskolin, agonist CPA, read-out: Functional A1 receptor activity, CHO, cAMP, IC50. A digest of the protocol: as §1

A further assay deals with T3, human A2B receptor (Homo sapiens, UniProt P29275).
T3 construct: expressed in transfected cells; host or cells: HEK293
T3 sequence (P29275 1-332): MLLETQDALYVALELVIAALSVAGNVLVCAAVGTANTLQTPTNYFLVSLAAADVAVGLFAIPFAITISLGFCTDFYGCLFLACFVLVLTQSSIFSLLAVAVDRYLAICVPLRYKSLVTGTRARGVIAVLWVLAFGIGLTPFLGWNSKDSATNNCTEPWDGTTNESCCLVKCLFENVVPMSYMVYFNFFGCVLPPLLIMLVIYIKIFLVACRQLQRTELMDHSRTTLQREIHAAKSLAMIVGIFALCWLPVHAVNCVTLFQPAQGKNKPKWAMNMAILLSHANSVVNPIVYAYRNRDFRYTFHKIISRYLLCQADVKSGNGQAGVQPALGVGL
As to the kind of experiment: Functional A2B receptor activity, recombinant HEK293 cells, cAMP (HTRF), agonist NECA. As to conditions: read-out: Functional A2B receptor activity, HEK293, cAMP, IC50. Put shortly:
as §2

human A2A receptor, sequence (P29274 whole entry): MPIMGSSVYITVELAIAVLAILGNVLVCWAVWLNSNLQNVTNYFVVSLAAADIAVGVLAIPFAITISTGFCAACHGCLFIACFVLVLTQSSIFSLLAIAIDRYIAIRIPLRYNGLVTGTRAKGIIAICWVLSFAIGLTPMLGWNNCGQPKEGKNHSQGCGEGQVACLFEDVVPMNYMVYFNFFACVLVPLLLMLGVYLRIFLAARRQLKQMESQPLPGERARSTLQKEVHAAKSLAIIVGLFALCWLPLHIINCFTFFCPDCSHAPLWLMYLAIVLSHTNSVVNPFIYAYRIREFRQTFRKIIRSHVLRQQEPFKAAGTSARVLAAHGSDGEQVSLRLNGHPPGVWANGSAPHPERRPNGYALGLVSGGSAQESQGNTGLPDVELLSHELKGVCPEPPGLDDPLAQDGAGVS

Broadly, the IC50 is the concentration at which inhibition is half-maximal. For `COc1ncc(C2CCC(F)(F)CC2)c2sc(NC(=O)N3CCC4(CCOCC4)C3)nc12` [Compound 111, 8-Oxa-2-aza-spiro[4.5]decane-2-carboxylic acid [7-(4,4-difluoro-cyclohexyl)-4-methoxy-thiazolo[4,5-c]pyridin-2-yl]-amide], the half-inhibitory concentration (IC50) was greater than 1000 nM at human A3 receptor, less than 10 nM at human A2A receptor, less than 1000 nM at human A1 receptor and less than 100 nM on human A2B receptor.

On to `COc1ccc(-c2cnn(C)c2)c2sc(NC(=O)N3CCC(C)(O)CC3)nc12` [reference compound], for which the IC50 on human A3 receptor (cAMP) is less than 1000 nM; at human A2A receptor, less than 10 nM; on human A1 receptor (cAMP), less than 1000 nM; on human A2B receptor, less than 1000 nM.

As for `COc1ncc(-c2ccccc2)c2sc(NC(=O)c3ccc(C(=O)O)cc3)nc12` [Compound 109, 4-({4-methoxy-7-phenyl-[1,3]thiazolo[4,5-c]pyridin-2-yl}carbamoyl)benzoic acid], the IC50 on human A3 receptor was greater than 1000 nM; on human A2A receptor, less than 10 nM; at human A1 receptor, greater than 1000 nM; on human A2B receptor it was less than 10 nM.

In the case of `COc1ncc(C2=CCC(OC)CC2)c2sc(NC(=O)N3CC[C@@]4(CCCOC4)C3)nc12` (stereo partly drawn) [Compound 77, (5S)-N-[4-methoxy-7-(4-methoxycyclohex-1-en-1-yl)-[1,3]thiazolo[4,5-c]pyridin-2-yl]-7-oxa-2-azaspiro[4.5]decane-2-carboxamide], the IC50 on human A3 receptor is greater than 1000 nM; on human A2A receptor, less than 10 nM; at human A1 receptor it was greater than 1000 nM; on human A2B receptor, less than 1000 nM.

As for `COc1cnc(N2CCOCC2)c2sc(NC(=O)N3CCC4(CCCO4)CC3)nc12` [drawing 189, reference compound], the concentration for half-maximal inhibition (IC50) on human A3 receptor (cAMP) was greater than 1000 nM; at human A2A receptor, less than 10 nM; on human A1 receptor (cAMP) it was greater than 1000 nM; at human A2B receptor, less than 1000 nM.

Consider `COc1ncc(C2=CCOCC2)c2sc(NC(=O)N3CCC4(CCOC4)C3)nc12` (stereo not shown) [Compound 108, N-[7-(3,6-dihydro-2H-pyran-4-yl)-4-methoxy-[1,3]thiazolo[4,5-c]pyridin-2-yl]-2-oxa-7-azaspiro[4.4]nonane-7-carboxamide], for which the IC50 on human A3 receptor was greater than 1000 nM; on human A2A receptor, less than 10 nM; on human A1 receptor, less than 1000 nM; on human A2B receptor it was less than 10 nM.

`COc1ncc(-c2csc(C)n2)c2sc(NC(=O)N3CCC4(CCOCC4)C3)nc12` [Compound 67, 8-Oxa-2-aza-spiro[4.5]decane-2-carboxylic acid [4-methoxy-7-(2-methyl-thiazol-4-yl)-thiazolo[4,5-c]pyridin-2-yl]-amide]: the IC50 at human A3 receptor is greater than 1000 nM; on human A2A receptor it was less than 10 nM; at human A1 receptor it was less than 1000 nM; at human A2B receptor it was less than 100 nM.

In the case of `COc1ncc(-c2ccc3cc[nH]c3c2)c2sc(NC(=O)N3CCC4(CCOCC4)C3)nc12` [Compound 9, N-[7-(1H-indol-6-yl)-4-methoxy-[1,3]thiazolo[4,5-c]pyridin-2-yl]-8-oxa-2-azaspiro[4.5]decane-2-carboxamide], the IC50 is greater than 1000 nM at human A3 receptor, less than 10 nM at human A2A receptor, greater than 1000 nM on human A1 receptor and less than 100 nM at human A2B receptor.

For the compound `COc1nc(F)c(C2CCOCC2)c2sc(NC(=O)c3cnn(C)c3)nc12` [Compound 23, N-[6-fluoro-4-methoxy-7-(oxan-4-yl)-[1,3]thiazolo[4,5-c]pyridin-2-yl]-1-methyl-1H-pyrazole-4-carboxamide], the IC50 at human A3 receptor was greater than 1000 nM; on human A2A receptor, less than 10 nM; on human A1 receptor it was less than 1000 nM; on human A2B receptor, less than 10 nM.

For `COc1ccc(N2CCOCC2)c2sc(NC(=O)N3CCOCC3)nc12` [reference compound], the IC50 at human A3 receptor (cAMP) was greater than 1000 nM; on human A2A receptor, less than 10 nM; on human A1 receptor (cAMP), greater than 1000 nM; on human A2B receptor, less than 1000 nM.

With `COc1ncc(-c2cc(O)ccc2F)c2sc(NC(=O)N3CCC4(CCOCC4)C3)nc12` [Compound 150, 8-Oxa-2-aza-spiro[4.5]decane-2-carboxylic acid [7-(2-fluoro-5-hydroxy-phenyl)-4-methoxy-thiazolo[4,5-c]pyridin-2-yl]-amide], the IC50 at human A3 receptor is greater than 1000 nM; on human A2A receptor, less than 10 nM; at human A1 receptor, greater than 1000 nM; on human A2B receptor it was less than 100 nM.

`COc1ncc(C2=CCOCC2)c2sc(NC(=O)c3c[nH]c(-c4ccccn4)n3)nc12` [Compound 162, 2-Pyridin-2-yl-1H-imidazole-4-carboxylic acid [7-(3,6-dihydro-2H-pyran-4-yl)-4-methoxy-thiazolo[4,5-c]pyridin-2-yl]-amide]: the IC50 on human A3 receptor was greater than 1000 nM; on human A2A receptor, less than 10 nM; on human A1 receptor, less than 1000 nM; on human A2B receptor it was less than 10 nM.

As to `COc1cnc(C2CCOCC2)c2sc(NC(=O)N3CCC(O)CC3)nc12` [drawing 190, reference compound], the concentration for half-maximal inhibition (IC50) on human A3 receptor (cAMP) is less than 1000 nM; at human A2A receptor it was less than 100 nM; at human A1 receptor (cAMP), greater than 1000 nM; on human A2B receptor, less than 1000 nM.

Regarding `COc1ncc(C2=CC(=O)CC2)c2sc(NC(=O)N3CCC4(CCOCC4)C3)nc12` [Compound 40, 8-Oxa-2-aza-spiro[4.5]decane-2-carboxylic acid [4-methoxy-7-(3-oxo-cyclopent-1-enyl)-thiazolo[4,5-c]pyridin-2-yl]-amide], the IC50 was greater than 1000 nM at human A3 receptor, less than 100 nM on human A2A receptor, greater than 1000 nM at human A1 receptor and less than 100 nM at human A2B receptor.

As for `O=C(Nc1nc2c(OC(F)F)ncc(-c3ccccc3)c2s1)N1CCC2(CCOCC2)C1` [Compound 80, 8-Oxa-2-aza-spiro[4.5]decane-2-carboxylic acid (4-difluoromethoxy-7-phenyl-thiazolo[4,5-c]pyridin-2-yl)-amide], the IC50 at human A3 receptor is greater than 1000 nM; on human A2A receptor, less than 10 nM; on human A1 receptor, greater than 1000 nM; at human A2B receptor, less than 100 nM.

In the case of `COc1ncc(-c2cnn(CC3CCCCO3)c2)c2sc(NC(=O)N3CCC4(CCOCC4)C3)nc12` (stereo not shown) [Compound 84, 8-Oxa-2-aza-spiro[4.5]decane-2-carboxylic acid {4-methoxy-7-[1-(tetrahydro-pyran-2-ylmethyl)-1H-pyrazol-4-yl]-thiazolo[4,5-c]pyridin-2-yl}-amide], the IC50 was greater than 1000 nM at human A3 receptor, less than 10 nM at human A2A receptor, less than 100 nM on human A1 receptor and less than 100 nM at human A2B receptor.

For the compound `COc1ccc(C2CCOCC2)c2sc(NC(=O)N3CCOCC3)nc12` [reference compound], the concentration for half-maximal inhibition (IC50) on human A3 receptor (cAMP) is greater than 1000 nM; on human A2A receptor it was less than 10 nM; on human A1 receptor (cAMP), less than 1000 nM; at human A2B receptor, less than 1000 nM.

With `COc1ncc(C2=CCOCC2)c2sc(NC(=O)c3cnn(-c4ccccc4)c3)nc12` [Compound 156, 1-Phenyl-1H-pyrazole-4-carboxylic acid [7-(3,6-dihydro-2H-pyran-4-yl)-4-methoxy-thiazolo[4,5-c]pyridin-2-yl]-amide], the IC50 at human A3 receptor was greater than 1000 nM; at human A2A receptor, less than 10 nM; on human A1 receptor, less than 1000 nM; at human A2B receptor, less than 10 nM.

Take `COc1ncc(C2=CCC(OC)CC2)c2sc(NC(=O)N3CC[C@]4(CCCOC4)C3)nc12` (stereo partly drawn) [Compound 70, (5R)-N-[4-methoxy-7-(4-methoxycyclohex-1-en-1-yl)-[1,3]thiazolo[4,5-c]pyridin-2-yl]-7-oxa-2-azaspiro[4.5]decane-2-carboxamide]: the half-maximal inhibitory concentration (IC50) on human A3 receptor was greater than 1000 nM; at human A2A receptor it was less than 10 nM; at human A1 receptor, greater than 1000 nM; on human A2B receptor it was less than 1000 nM.
